Where two headings read alike, the source gives them in different places.
Columns and labels:
[1] = tested on: LPS-induced NO production in N9 microglial cells; assay: LPS-induced NO production (Griess assay); format: cell-based, mouse; settings: for Nitrite: control 4.60, LPS group 31.81 μM; for Nitrite / inhibition at 25 µM / inhibition at 50 µM / % Inhibition of NO Production: mean ± S.E.M.; for inhibition at 25 µM / inhibition at 50 µM: Mus musculus
Experimental: Figure 2 Inhibitory effects of TBIII (A) and t-HL (B) in LPS-stimulated N9 microglial cells. Cells were pretreated with different concentrations of TBIII and t-HL 1 h prior to the addition of LPS (100 ng/mL) and were further incubated for 24 h. NO production was determined by using the Griess reagent. IC50 values and curve fitting were determined using Graphpad Prism (GraphPad, Avenida, CA, USA).
Accumulation of nitrite, a metabolite of NO in the culture media, was measured by Griess assay as previously reported. Briefly, cells were stimulated with 100 ng/mL of LPS for 24 h in the presence of the test compounds (0–50 μM).

[2] = MTT assay for cell viability; settings: mouse, N9 microglial cells, % Cell Viability, 24 h, MTT, mean ± S.E.M.; for viability at 24 h, 25 µM: 25 μM compound; for viability at 24 h, 50 µM: 50 μM compound
Experimental: The N9 microglial cell line was obtained from China Cell Line Bank. The cells were grown at 37 °C in IMDM supplemented with 10% heat-inactivated FBS under a humidified atmosphere of 5% CO2. In this experiment, cells were allowed to acclimate for 24 h before treatments.
Cell viability was evaluated by the MTT reduction assay [36]. Cells were seeded in 96-well plates at a density of 2 × 10^4 cells/well and allowed to grow for 24 h before treatments. Thereafter, 100 μL medium containing various concentrations (0–50 μM) of compounds were added and incubated for another 24 h. MTT was dissolved in DD water (5 mg/mL) and 10 μL were added to each well. After 4 h, the medium was removed and 100 μL DMSO were filled in each well. The optical density was measured at 490 nm on a Flexstation 3 (Molecular Devices, Silicon Valley, CA, USA).

[3] = 25 μM compound, LPS 100 ng/mL, 24 h
[4] = 50 μM compound, LPS 100 ng/mL, 24 h
[5] = N9, 24 h, 25 μM compound, LPS 100 ng/mL, 24 h, read-out: % Inhibition of NO Production
[6] = N9, 24 h, 50 μM compound, LPS 100 ng/mL, 24 h, read-out: % Inhibition of NO Production
[7] = N9, 25 μM compound, LPS 100 ng/mL, 24 h, read-out: % Inhibition of NO Production
[8] = N9, 50 μM compound, LPS 100 ng/mL, 24 h, read-out: % Inhibition of NO Production
[9] = N9, 24 h, read-out: % Inhibition of NO Production, 25 μM compound, LPS 100 ng/mL, 24 h
[10] = N9, 24 h, read-out: % Inhibition of NO Production, 50 μM compound, LPS 100 ng/mL, 24 h
[11] = 50 μM compound, LPS 100 ng/mL, 24 h, 50 µM
[12] = 25 μM compound, LPS 100 ng/mL, 24 h, 25 µM

With `COc1ccc(C(=O)c2ccc(O)cc2)c(OC2OC(CO)C(O)C(O)C2O)c1O` (stereo not drawn) [Compound 2, Zimoside A] the Nitrite [1, 3] was 26.64 ± 1.13 µM, the Nitrite [1, 4] was 21.41 ± 0.92 µM and the inhibition at 25 µM [1, 5] was 16.3 ± 3.55%. It also gave an inhibition at 50 µM [1, 6] of 32.8 ± 2.88%, a viability at 24 h, 25 µM [2] of 97.2 ± 3.27% and a viability at 24 h, 50 µM [2] of 94.6 ± 5.47%.
For `C[C@@H]1O[C@@H](O[C@H]2[C@H](OC(=O)[C@]34CCC(C)(C)C[C@H]3C3=CC[C@@H]5[C@@]6(C)C[C@H](O)[C@H](O[C@@H]7O[C@H](CO)[C@@H](O)[C@H](O[C@@H]8O[C@H](CO)[C@@H](O)[C@H](O)[C@H]8O)[C@H]7O)[C@@](C)(CO)[C@@H]6CC[C@@]5(C)[C@]3(C)C[C@H]4O)OC[C@H](O)[C@@H]2O)[C@H](O)[C@H](O)[C@H]1O[C@@H]1OC[C@@H](O)[C@H](O[C@@H]2OC[C@](O)(CO)[C@H]2O)[C@H]1O` [Compound 17, Polygalacin D2], the Nitrite [1, 3] was 31.14 ± 0.78 µM, the Nitrite [1, 4] was 26.21 ± 0.82 µM and the inhibition at 25 µM [1, 5] was 2.25 ± 2.46%. It also gave an inhibition at 50 µM [1, 6] of 17.7 ± 3.14%, a viability at 24 h, 25 µM [2] of 97.5 ± 1.83% and a viability at 24 h, 50 µM [2] of 88 ± 8.92%.
With `O=c1cc(-c2ccc(O)cc2)oc2cc(O)c([C@@H]3O[C@H](CO)[C@@H](O)[C@H](O)[C@H]3O)c(O)c12` [Compound 20, Isovitexin] the Nitrite [1, 3] was 28.39 ± 0.07 µM, the Nitrite [1, 4] was 22.82 ± 0.27 µM and the inhibition at 25 µM [1, 5] was 10.2 ± 4.73%. The inhibition at 50 µM [1, 6] was 29.8 ± 0.6%, the viability at 24 h, 25 µM [2] was 135 ± 11.8% and the viability at 24 h, 50 µM [2] was 95.7 ± 2.75%.
`Nc1ncnc2c1ncn2[C@@H]1O[C@H](CO)[C@@H](O)[C@H]1O` [Compound 25, Adenosine] gave a Nitrite [1, 3] of 27.43 ± 1.35 µM, a Nitrite [1, 4] of 20.69 ± 1.74 µM and an inhibition at 25 µM [1, 5] of 13.9 ± 4.23%. The inhibition at 50 µM [1, 6] was 35.1 ± 5.47%, the viability at 24 h, 25 µM [2] was 81.6 ± 1.26% and the viability at 24 h, 50 µM [2] was 80.5 ± 6.19%.
`O=c1cc(-c2ccc(O)cc2)oc2c([C@@H]3O[C@H](CO)[C@@H](O)[C@H](O)[C@H]3O)c(O)cc(O)c12` [Compound 21, Vitexin] gave a Nitrite [1, 3] of 28.88 ± 1.38 µM, a Nitrite [1, 4] of 17.81 ± 1.13 µM and an inhibition at 25 µM [1, 7] of 9.39 ± 4.33%. For the same molecule, the inhibition at 50 µM [1, 8] was 44.1 ± 3.56%, the viability at 24 h, 25 µM [2] was 90.5 ± 2.51% and the viability at 24 h, 50 µM [2] was 81.8 ± 4.38%.
`CC(CCC1(O)OC2CC3C4CCC5CC(OC6OC(CO)C(O)C(O)C6OC6OC(CO)C(O)C(O)C6O)CCC5(C)C4CCC3(C)C2C1C)COC1OC(CO)C(O)C(O)C1O` (stereo not drawn) [Compound 6, Anemarnoside B] gave a Nitrite [1, 3] of 40.89 ± 2.04 µM, a Nitrite [1, 4] of 26.38 ± 2.63 µM and an inhibition at 25 µM [1, 9] of -28.3 ± 6.4%. For the same molecule, the inhibition at 50 µM [1, 10] was 17.2 ± 8.26%, the viability at 24 h, 25 µM [2] was 115 ± 5.52% and the viability at 24 h, 50 µM [2] was 104 ± 16.5%.
For `C=CCOC1O[C@H](CO)[C@@H](O)[C@H](O)[C@H]1O` (stereo in doubt) [Compound 26, α-D-Glucose monoallyl ether], the Nitrite [1, 3] was 29.57 ± 0.71 µM, the Nitrite [1, 4] was 22.60 ± 2.19 µM and the inhibition at 25 µM [1, 5] was 7.13 ± 2.23%. It also gave an inhibition at 50 µM [1, 6] of 29 ± 8.43%, a viability at 24 h, 25 µM [2] of 107.2 ± 0.63% and a viability at 24 h, 50 µM [2] of 105 ± 16.1%.
Molecule `CC(CCC1(O)OC2CC3C4CCC5CC(OC6OC(CO)C(OC7OC(CO)C(O)C(OC8OCC(O)C(O)C8O)C7OC7OC(CO)C(O)C(O)C7O)C(O)C6O)C(O)CC5(C)C4CCC3(C)C2C1C)COC1OC(CO)C(O)C(O)C1O` (stereo not drawn) [Compound 7, Hostaplantagineoside C] has a Nitrite [1, 3] of 32.76 ± 0.85 µM, a Nitrite [1, 4] of 23.52 ± 0.37 µM and an inhibition at 25 µM [1, 7] of -3.57 ± 8.75%. For the same molecule, the inhibition at 50 µM [1, 8] was 25.8 ± 2.4%, the viability at 24 h, 25 µM [2] was 84.9 ± 1.82% and the viability at 24 h, 50 µM [2] was 79.7 ± 6.03%.
In the case of `C[C@@H]1O[C@@H](O[C@H]2[C@H](OC(=O)[C@]34CCC(C)(C)C[C@H]3C3=CC[C@@H]5[C@@]6(C)C[C@H](O)[C@H](O[C@@H]7O[C@H](CO)[C@@H](O)[C@H](O[C@@H]8O[C@H](CO)[C@@H](O)[C@H](O)[C@H]8O)[C@H]7O)C(CO)(CO)[C@@H]6CC[C@@]5(C)[C@]3(C)C[C@H]4O)OC[C@H](O)[C@@H]2O)[C@H](O)[C@H](O)[C@H]1O[C@@H]1OC[C@@H](O)[C@H](O[C@@H]2OC[C@](O)(CO)[C@H]2O)[C@H]1O` [Compound 16, Platycodin D2], the Nitrite [1, 3] is reported as 33.68 ± 1.44 µM, the Nitrite [1, 4] is reported as 24.94 ± 0.45 µM and the inhibition at 25 µM [1, 5] is reported as -5.78 ± 4.51%. For the same molecule, the inhibition at 50 µM [1, 6] was 21.7 ± 1.4%, the viability at 24 h, 25 µM [2] was 114 ± 4.62% and the viability at 24 h, 50 µM [2] was 101 ± 1.83%.
For `CC(C)CCC1(O)OC2C(O)C3C4CCC5CC(OC6OC(CO)C(O)C(O)C6OC6OC(CO)C(O)C(O)C6O)CCC5(C)C4CCC3(C)C2C1C` (stereo not drawn) [Compound 4, Anemarrhenasaponin II], the Nitrite [1, 3] was 9.52 ± 0.84 µM, the Nitrite [1, 4] was 3.80 ± 0.53 µM and the “% Inhibition of NO Production” value [1, 11] was 87.98 ± 2.99 %. For the same molecule, the “cytotoxicity against N9 microglial cells (in words)” value (N9 microglial cells) was “potent cytotoxicity”, the “cell viability reduced to” value (N9 microglial cells; mouse, 24 h) was ≤ 60% and the “% Cell Viability” value (N9 microglial cells; mouse, 24 h, 25 µM) was 63.92 ± 5.98 %. For the same molecule, the “% Cell Viability” value (N9 microglial cells; mouse, 24 h, 50 µM) was 8.57 ± 0.11 %.
In the case of `CC1=C(CCC(C)COC2OC(CO)C(O)C(O)C2O)OC2CC3C4CCC5CC(OC6OC(CO)C(O)C(O)C6OC6OC(CO)C(O)C(O)C6O)CCC5(C)C4CCC3(C)C12` (stereo not drawn) [Compound 12, Macrostemonoside F], the Nitrite [1, 3] is reported as 19.64 ± 1.21 µM, the “% Inhibition of NO Production” value [1, 12] is reported as 38.33 ± 3.80 % and the Nitrite [1, 4] is reported as 11.82 ± 1.03 µM. For the same molecule, the “% Inhibition of NO Production” value [1, 11] was 62.89 ± 3.22 %, the “% Cell Viability” value (N9 microglial cells; mouse, 24 h, 25 µM) was 104.74 ± 3.16% and the “% Cell Viability” value (N9 microglial cells; mouse, 24 h, 50 µM) was 105.77 ± 2.84%.
Work on `N[C@@H](Cc1c[nH]c2ccccc12)C(=O)O` [Compound 24, Tryptophan] yielded a Nitrite [1, 3] of 30.49 ± 0.93 µM, a Nitrite [1, 4] of 24.19 ± 0.72 µM and an inhibition at 25 µM [1, 9] of 4.24 ± 2.92%. The inhibition at 50 µM [1, 10] was 24 ± 2.27%, the viability at 24 h, 25 µM [2] was 105 ± 6.13% and the viability at 24 h, 50 µM [2] was 92.4 ± 8.71%.
In the case of `CC1=C(CCC(C)COC2OC(CO)C(O)C(O)C2O)OC2CC3C4CCC5CC(OC6OC(CO)C(O)C(O)C6OC6OC(CO)C(O)C(O)C6O)CCC5(C)C4CCC3(C)C12` (stereo not drawn) [Compound 13, Timosaponin C], the Nitrite [1, 3] is reported as 24.24 ± 1.32 µM, the “% Inhibition of NO Production” value [1, 12] is reported as 23.94 ± 4.13% and the Nitrite [1, 4] is reported as 13.36 ± 0.56 µM. For the same molecule, the “% Inhibition of NO Production” value [1, 11] was 58.10 ± 1.75 %, the “inhibitory activity on NO production (in words)” value ([1]; compared with compound 11) was “much weaker inhibitory activity” and the “% Cell Viability” value (N9 microglial cells; mouse, 24 h, 25 µM) was 109.04 ± 4.85%. For the same molecule, the “% Cell Viability” value (N9 microglial cells; mouse, 24 h, 50 µM) was 97.19 ± 6.46%.
`O=C(c1ccc(O)cc1)c1c(O)cc(O)cc1O` [Compound 3, Iriflophene] showed a Nitrite [1, 3] of 26.06 ± 1.24 µM, a Nitrite [1, 4] of 20.41 ± 0.38 µM and an inhibition at 25 µM [1, 5] of 18.1 ± 3.88%. It also gave an inhibition at 50 µM [1, 6] of 35.9 ± 1.2%, a viability at 24 h, 25 µM [2] of 107 ± 3.62% and a viability at 24 h, 50 µM [2] of 113 ± 5.32%.
For `CC(C)CCC1(O)OC2C(O)C3C4CCC5CC(OC6OC(CO)C(O)C(O)C6OC6OC(CO)C(O)C(O)C6O)CCC5(C)C4CCC3(C)C2C1C` (stereo not drawn) [Compound 5, Anemarrhenasaponin I], the Nitrite [1, 3] was 29.82 ± 0.24 µM, the “% Inhibition of NO Production” value [1, 12] was 6.36 ± 0.76 % and the Nitrite [1, 4] was 19.14 ± 0.59 µM. For the same molecule, the “% Inhibition of NO Production” value [1, 11] was 39.90 ± 1.85 %, the “cytotoxicity against N9 microglial cells (in words)” value (N9 microglial cells) was “not” and the “% Cell Viability” value (N9 microglial cells; mouse, 24 h, 25 µM) was 110.42 ± 4.67%. The “% Cell Viability” value (N9 microglial cells; mouse, 24 h, 50 µM) was 115.47 ± 6.83%.
Molecule `COc1cc(O)c(C(=O)c2ccc(O)cc2)c(O)c1` [Compound 1, 2,6,4′-trihydroxy-4-methoxybenzophenone] has a Nitrite [1, 3] of 26.78 ± 1.27 µM, a Nitrite [1, 4] of 19.29 ± 0.10 µM and an inhibition at 25 µM [1, 5] of 15.3 ± 9.4%. The inhibition at 50 µM [1, 6] was 41.7 ± 3.9%, the viability at 24 h, 25 µM [2] was 98.7 ± 8.27% and the viability at 24 h, 50 µM [2] was 97.5 ± 1.85%.
